Broadly, the IC50 is the concentration needed to halve the response being measured. Low values mean greater potency, high ones weaker potency.

This test deals with T1, human EP4 (hEP4) receptor (Homo sapiens, UniProt P35408).
T1 construct: expressed in transfected cells; host or cells: HEK-293 T cells, transient co-transfection with polyethylenimine
In words: In vitro human EP4 functional antagonist activity using BRET biosensors (cAMP EPAC biosensor, TCS2510 stimulation). It counts as cell-based. The note with it: antagonist activity vs EC60 TCS2510, hEP4 in HEK-293 T cells. The procedure, abridged:
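HEK-293T cells transiently co-transfected with hEP4 and EPAC cAMP BRET biosensor (luciferase/GFP), assayed 48 h later in HEPES-buffered saline after 1 h at 22 °C. After 5 min with compound, cells stimulated with EC60 TCS2510 and BRET read for 10 min; IC50 from 10-point, 4.5-log variable-slope fits, duplicate, two experiments.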
(In BRET a luciferase serves as donor, and the signal depends on an acceptor being close.)

Some results are limits rather than exact numbers.

T1 sequence (P35408 whole entry): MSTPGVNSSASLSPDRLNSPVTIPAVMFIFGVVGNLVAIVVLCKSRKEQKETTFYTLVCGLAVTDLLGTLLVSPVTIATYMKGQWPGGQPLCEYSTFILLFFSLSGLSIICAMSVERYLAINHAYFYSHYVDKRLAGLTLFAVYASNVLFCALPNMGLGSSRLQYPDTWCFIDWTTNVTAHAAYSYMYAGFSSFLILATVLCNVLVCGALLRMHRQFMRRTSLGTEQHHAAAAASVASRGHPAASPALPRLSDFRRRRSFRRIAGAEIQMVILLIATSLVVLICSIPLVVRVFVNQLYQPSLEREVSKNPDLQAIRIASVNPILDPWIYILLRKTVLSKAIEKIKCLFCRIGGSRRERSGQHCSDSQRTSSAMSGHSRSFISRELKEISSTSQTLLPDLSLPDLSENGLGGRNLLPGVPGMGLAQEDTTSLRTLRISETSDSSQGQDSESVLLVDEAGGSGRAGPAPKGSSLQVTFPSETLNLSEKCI

For the compound `C[C@H](NC(=O)C1(N2CC[C@@H](Oc3cccc(C(F)(F)F)c3)C2)CC1)c1ccc(C(=O)O)cc1.Cl` [Example 166, 4-[(1S)-1-[[1-[(3R)-3-[3-(Trifluoromethyl)phenoxy]pyrrolidin-1-yl]cyclopropane-1-carbonyl]amino]ethyl]benzoic acid, hydrochloride], the IC50 was less than 100 nM.

These data come from patent publication US12527779B2, “Prostaglandin E2 (PGE2) EP4 receptor antagonists” (Domain Therapeutics, priority 2019, dated 2026).
